Values of other authors, collected in US7959936B2, “Emulsifications-stable pesticidal composition” (Syngenta Crop Protection, Inc., priority 2003, dated 2011).
Where two headings read alike, the source gives them in different places.

Assays:
[1] = system: Mouse
[2] = system: Quail
[3] = system: Rabbit; conditions: no unit printed for this line
[4] = 25° C
[5] = system: Bluegill
[6] = system: Rabbit
[7] = system: Rabbit; remark: listed apart in the source
[8] = system: Rat
[9] = system: Mallard duck
[10] = system: Rabbit; remark: listed apart in the source
[11] = system: Rainbow trout
[12] = system: Guinea pig

## 2-(thiazol-4-ine)benzimidazole [Thiabendazole]
[1]
  Acute oral toxicity (LD50: mg/kg): 3,600 mg/kg
[2]
  Acute oral toxicity LD50 (mg/kg): <2,250 mg/kg
20° C.
  Solubility, 1,2-dichloroethane: 810 µg/mL
  Solubility, Acetone: 2430 µg/mL
  Solubility, Ethyl acetate: 1490 µg/mL
  Solubility, Methanol: 8280 µg/mL
  Solubility, Xylene: 130 µg/mL
  Solubility, n-Hexane: <10 µg/mL
  Solubility, n-Octanol: 3910 µg/mL
20° C., pH4
  Solubility, Water: 160 µg/mL
20° C., pH7
  Solubility, Water: 30 µg/mL
Such as methyl alcohol
  solubility in short-chain alcohols: comparatively satisfactory solubility
water
  solubility in water: practically insoluble
Xylene and petroleum-based solvents
  solubility in typical industrial solvents: only slightly soluble
[3]
  Acute percutaneous toxicity: <2,000
[4]
  Vapor pressure: Vapor pressure: 4.6 × 10^−4 mPa (25° C)
[5]
  TLm (96 hrs): 19 mg/L
[6]
  Irritability Mucous membrane: Non-irritating
[7]
  Irritability Skin: Non-irritating
[8]
  Acute oral toxicity (LD50: mg/kg): 3,100 mg/kg
[9]
  Acute oral toxicity LD50 (mg/kg): 5,620 mg/kg
[10]
  Acute oral toxicity (LD50: mg/kg): 3,800 mg/kg
[11]
  TLm (96 hrs): 0.5 mg/L
[12]
  Antigenicity: None
